Measurements taken from patent publication US5594030A, “Controlled release pharmaceutical compositions based on one or more pharmaceutically acceptable salts of gamma hydroxy-butyric acid” (Laboratorio Farmaceutico C.T. S.r.l., priority 1993, dated 1997).
Structures can show the parent of a compound that is named as a salt. Where two headings read alike, the source gives them in different places.

Key:
[1] = GHB average pharmacokinetic parameters after oral administration of different doses (immediate release) to 8 healthy volunteers; type: in vivo, human (healthy volunteers); conditions: for Tmax / half-life / CL/F / MRT: human, plasma; for absorption: result in words, immediate release / aqueous liquid solutions; for CL/F: read-out: CLo (oral clearance); for MRT: read-out: MRT (average residence time) (converted); for AUC: average (SD)
Source text: GHB Average pharmacokinetic parameters after
administration of different doses to 8 healthy volunteers

[2] = In vitro dissolution test (paddle test); type: physicochemical; conditions: aqueous liquid solutions / formulations on the market; instantaneous
Protocol: The evaluation test in vitro is carried out with a dissolution test consistent with the apparatus described in the European Pharmacopoeia 2° ed. or UPS XXII ed. ("paddle test"). The dosage, evaluated in the time after 1, 2, 3, 4, 6 and 8 hours, is carried out with 1N hydrochloric acid, taking a known amount from the dissolution medium.
medium: distilled H20 900 ml.
Data obtained are the following (expressed as GHBNa percentage with respect to the total tablet content): […]

[3] = test system: enzymes having the --SH group; conditions: result in words; cited from earlier work
[4] = cited from earlier work
[5] = fraction of unbound drug (dialysis); type: in vitro ADME; conditions: predialysis concentration of 25 μg/ml; read-out: fu (fraction of unbound drug)
Protocol: ^c determined at a predialysis concentration of 25 μg/ml
peak, tmax absorption time to the peak, fu fraction of unbound

[6] = oral 25 mg/kg, normalized at 12.5 mg/kg
[7] = oral 50 mg/kg, normalized at 12.5 mg/kg

O=C(O)CCCO [GHBNa, sodium salt of gamma hydroxy butyric acid]
Tmax ([1]; po, about, summary of table 1 and FIG. 1, read-out: maximum peak after the administration): 30 to 45 min
half-life ([1]; po, summary of table 1 and FIG. 1, read-out: half life): 20 to 25 min
absorption [1]: rapidly absorbed
absorption ([1]; listed as sodium gamma hydroxy butyrate): absorbed quickly
elimination time ([1]; summary of table 1 and FIG. 1): 4 to 5 h
release of the active substance [2]: 100%

CCN(CC)C(=S)SSC(=S)N(CC)CC [Disulfiram]
enzyme inhibition [3]: alters the activity of all enzymes having the --SH group
toxicity ([4]; Disulfiram by itself, therapeutical doses): scarcely toxic
blood acetaldehyde concentration vs alcohol dose alone ([4]; alcohol administered after Disulfiram pretreatment): five to ten times higher
severe events occurred ([4]; as a consequence of Disulfiram treatment): depression, myocardial infarction, sudden and unexplained fatalities
side effects (may cause) ([4]; in vivo): acneiform eruptions, allergic dermatitis, urticaria, lassitude, fatigue, tremor, restlessnes, reduced sexual potency, gastric or digestive disturbances

O=C(O)CCCO [GHB, gamma hydroxy butyric acid]
Tmax ([1]; oral 12.5 mg/kg, average value (range), read-out: tmax (absorption time to the peak) (converted)): 25 min
CL/F ([1]; oral 12.5 mg/kg): 14 mL/min/kg
MRT ([1]; oral 12.5 mg/kg): 45 min
half-life ([1]; oral 12.5 mg/kg, read-out: t^1/2 z (final halflife time)): 20 min
Tmax ([1]; oral 25 mg/kg, average value (range), read-out: tmax (absorption time to the peak) (converted)): 30 min
CL/F ([1]; oral 25 mg/kg): 9 mL/min/kg
MRT ([1]; oral 25 mg/kg): 53 min
half-life ([1]; oral 25 mg/kg, read-out: t^1/2 z (final halflife time)): 22 min
Tmax ([1]; oral 50 mg/kg, average value (range), read-out: tmax (absorption time to the peak) (converted)): 45 min
CL/F ([1]; oral 50 mg/kg): 7 mL/min/kg
MRT ([1]; oral 50 mg/kg): 70 min
half-life ([1]; oral 50 mg/kg, read-out: t^1/2 z (final halflife time)): 23 min
Cmax ([1]; oral 12.5 mg/kg): 23 (9) μg/ml
AUC ([1]; oral 12.5 mg/kg, 8 healthy volunteers): 905 (443) μg/ml min
Cmax [1, 6]: 23 (11) μg/ml
AUC [1, 6]: 1271 (560) μg/ml min
Cmax [1, 7]: 20 (7) μg/ml
AUC [1, 7]: 1565 (548) μg/ml min
fraction unbound [5]: 0.99
